Measurements taken from patent US8853146B2, “Hapten compounds and compositions and uses thereof” (The Board of Trustees of the University of Arkansas, priority 2007, dated 2014).

Key:
Set-up in all cases: species or system mouse
Details in all cases: RIA IC50 value for METH/RIA IC50 value for test ligand
[1] = system: mAb6H8; test: RIA cross-reactivity profile, inhibition of [3H]-(+)METH binding to mAb6H8
Procedure: (§1) KD values for mAb were determined by the method of Akera and Cheng (1977, Biochim Biophys Acta 470:412-423).

[2] = system: mAb4G9; test: RIA cross-reactivity profile, inhibition of [3H]-(+)METH binding to mAb4G9
Procedure: as §1

[3] = system: mAb6H4; test: RIA cross-reactivity profile, inhibition of [3H]-(+)METH binding to mAb6H4
Procedure: as §1

Compound | Antibody Specificity (Relative Potency to METH), mAb6H8 [1] | Antibody Specificity (Relative Potency to METH), mAb4G9 [2] | Antibody Specificity (Relative Potency to METH), mAb6H4 [3]
CC(N)Cc1ccc2c(c1)OCO2 (single isomer, unassigned; (-)) [(−)MDA] | <0.001 | 0.002 | <0.001
CNC(C)Cc1ccc2c(c1)OCO2 (single isomer, unassigned; (+)) [(+)MDMA, (+)-3,4-methylenedioxymethamphetamine] | 3.40 | 0.29 | 1.25
CNC[C@H](O)c1cccc(O)c1 [l-phenylphrine] | <0.001 | <0.001 | 0.001
NC[C@H](O)c1ccc(O)c(O)c1 [norepinepherine] | <0.001 | <0.001 | <0.001
CC(N)Cc1ccccc1 (single isomer, unassigned; (+)) [(+)AMP, (+)-amphetamine] | 0.023 | 0.34 | 0.001
(+)pseudoephedrine | 0.018 | 0.004 | <0.001
CNC(C)Cc1ccc2c(c1)OCO2 (single isomer, unassigned; (-)) [(−)MDMA] | 0.018 | 0.011 | 0.007
(+)norpseudoephedrine | <0.001 | <0.001 | <0.001
CNC[C@H](O)c1ccc(O)c(O)c1 [epinephrine] | <0.001 | <0.001 | <0.001
CC(N)Cc1ccccc1 (single isomer, unassigned; (-)) [(−)AMP, (−)amphetamine] | 0.003 | 0.063 | <0.001
NCCc1ccccc1 [β-phenylethylamine] | <0.001 | 0.001 | <0.001
CN[C@H](C)[C@@H](O)c1ccccc1 [(+)ephedrine] | <0.001 | <0.001 | <0.001
(−)-methamphetamine [(−)METH] | 0.011 | 0.102 | 0.030
NCCc1ccc(O)cc1 [tyramine] | <0.001 | <0.001 | <0.001
CC(N)Cc1ccc2c(c1)OCO2 (single isomer, unassigned; (+)) [(+)MDA] | 0.024 | 0.090 | 0.001
NCCc1ccc(O)c(O)c1 [dopamine] | <0.001 | <0.001 | <0.001
NCCc1c[nH]c2ccc(O)cc12 [serotonin] | <0.001 | <0.001 | <0.001
CNC(C)Cc1ccc(O)cc1 (stereo not drawn) [4-OH-METH] | 0.294 | 0.106 | 0.588
CC(N)C(O)c1ccccc1 (single isomer, unassigned; (+)) [(+)phenylpropanolamine] | <0.001 | <0.001 | <0.001
